Reference: ChEMBL document CHEMBL5614455, “Novel Azepino[4,5-b]indolone as cGAS Inhibitors for Treating Immune-Mediated Diseases” (ACS Med Chem Lett, 2024)

Target: Cyclic GMP-AMP synthase (Homo sapiens, UniProt Q8N884)
Assay: Inhibition of full length his-tagged human recombinant cGAS extracted from Escherichia coli BL21 (DE3) incubated for 3 hrs by rapidfire 365 mass spectrometry analysis

Sequence of Cyclic GMP-AMP synthase (Q8N884 whole entry): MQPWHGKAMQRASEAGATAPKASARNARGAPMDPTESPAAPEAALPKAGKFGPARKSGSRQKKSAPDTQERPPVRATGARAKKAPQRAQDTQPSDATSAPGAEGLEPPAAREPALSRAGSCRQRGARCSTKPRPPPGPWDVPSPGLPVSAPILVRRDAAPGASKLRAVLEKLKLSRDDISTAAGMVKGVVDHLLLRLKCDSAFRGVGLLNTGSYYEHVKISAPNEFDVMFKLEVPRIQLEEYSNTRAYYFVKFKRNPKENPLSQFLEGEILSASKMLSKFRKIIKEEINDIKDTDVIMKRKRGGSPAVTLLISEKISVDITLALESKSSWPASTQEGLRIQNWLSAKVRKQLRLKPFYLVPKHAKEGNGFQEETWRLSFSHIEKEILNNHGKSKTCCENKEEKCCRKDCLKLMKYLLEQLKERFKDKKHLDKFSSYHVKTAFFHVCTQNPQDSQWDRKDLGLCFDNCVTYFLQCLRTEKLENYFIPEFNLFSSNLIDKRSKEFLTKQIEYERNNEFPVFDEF

Row | IC50 [nM] | Compound
1 | 8 | COCC[C@@H]1CNC(=O)[C@@H](C)c2c1[nH]c1c(Cl)c(Cl)cc(NCCO)c21
2 | 2 | C[C@@H]1C(=O)NCCc2[nH]c3c(Cl)c(Cl)cc(OCC#N)c3c21
3 | 8 | COCCCOc1cc(Cl)c(Cl)c2[nH]c3c(c12)[C@H](C)C(=O)NCC3
4 | 8 | CC(F)(F)C[C@@H]1CNC(=O)Cc2c1[nH]c1c(Cl)c(Cl)cc(CC#N)c21
5 | 5 | Cn1ncc(-c2cc(Cl)c(Cl)c3[nH]c4c(c23)CC(=O)NCC4CC(=O)O)n1 (stereo unspecified)
6 | 7 | C[C@@H]1C(=O)NCCc2[nH]c3c(Cl)c(Cl)cc(OCCCO)c3c21
